Measured values reported in publication PMC10657444, “Design and evaluation of tadpole-like conformational antimicrobial peptides” (Communications Biology, 2023).
Values after ≈ are worked out from the molar mass of the structure shown. Read-outs that look alike come from different tables or passages of the source. Non-standard residues stand in square brackets, D forms with d. Residues, ends and D or L forms follow the SMILES beside them. *: point of attachment. Octanoyl = CCCCCCCC(=O)*

How the values were obtained:
K. pneumoniae 3026 = assay type: cell-based, Klebsiella pneumoniae
Text: (§1) Bacteria were cultivated in Luria-Bertani (LB) broth.

[1] = system: K. pneumoniae ATCC 700603; assay type: cell-based, Klebsiella pneumoniae
Text: as §1

A. baumannii 1337 = assay type: cell-based, Acinetobacter baumannii
Text: as §1

A. baumannii 1318 = assay type: cell-based, Acinetobacter baumannii
Text: as §1

E. coli ATCC 25922 = assay type: cell-based, Escherichia coli
Text: as §1

E. coli S = assay type: cell-based, Escherichia coli
Text: as §1

MRSA ATCC 43300 = assay type: cell-based, Staphylococcus aureus
Text: as §1

MRSA USA 300 = assay type: cell-based, Staphylococcus aureus
Text: as §1

MRSA 3393 = assay type: cell-based, Staphylococcus aureus
Text: as §1

Row | MIC Gram- K. p 3026 (K. pneumoniae 3026) | MIC Gram- K. p ATCC 700603 [1] | MIC Gram- A. b 1337 (A. baumannii 1337) | MIC Gram- A. b 1318 (A. baumannii 1318) | MIC Gram- E. coli ATCC 25922 (E. coli ATCC 25922) | MIC Gram- E. coli S (E. coli S) | MIC Gram+ MRSA ATCC 43300 (MRSA ATCC 43300; ATCC 43300) | MIC Gram+ MRSA USA 300 (MRSA USA 300) | MIC Gram+ MRSA 3393 (MRSA 3393; 3393) | MIC Gram+ MRSA ATCC 43300 (MRSA ATCC 43300) | MIC Gram+ MRSA 3393 (MRSA 3393) | SMILES
1 | > 100 µM | > 100 µM | > 100 µM | > 100 µM | > 100 µM | > 100 µM | > 100 µM | > 100 µM | > 100 µM | – | – | CC[C@H](C)[C@H](NC(=O)[C@H](CCCNC(=N)N)NC(=O)[C@H](CO)NC(=O)[C@H](CC(C)C)NC(=O)[C@@H](N)Cc1ccccc1)C(=O)N[C@@H](Cc1ccccc1)C(N)=O [SHfΔ2F] (H-FLSRIF-NH2; N-terminus assumed)
2 | > 100 µM | > 100 µM | 50 µM (≈ 65.4 µg/mL) | > 100 µM | 50 µM (≈ 65.4 µg/mL) | > 100 µM | 3.13 µM (≈ 4.09 µg/mL) | 6.25 µM (≈ 8.17 µg/mL) | 3.13 µM (≈ 4.09 µg/mL) | – | – | CC[C@H](C)[C@H](NC(=O)[C@H](CCCNC(=N)N)NC(=O)[C@H](CCCNC(=N)N)NC(=O)[C@H](CC(C)C)NC(=O)[C@H](Cc1ccccc1)NC(=O)[C@H](Cc1ccccc1)NC(=O)[C@H](Cc1ccccc1)NC(=O)[C@@H](N)Cc1ccc(O)cc1)C(=O)N[C@@H](Cc1ccccc1)C(N)=O [Y-SHf(R^5)] (H-YFFFLRRIF-NH2; N-terminus assumed)
3 | > 100 µM | > 100 µM | > 100 µM | > 100 µM | > 100 µM | > 100 µM | – | – | – | – | – | CC[C@H](C)[C@H](NC(=O)[C@H](CCCNC(=N)N)NC(=O)[C@H](CO)NC(=O)[C@H](CC(C)C)NC(=O)[C@H](Cc1ccccc1)NC(=O)[C@H](Cc1ccccc1)NC(=O)[C@H](Cc1ccc(O)cc1)NC(=O)[C@@H](N)Cc1ccc(O)cc1)C(=O)N[C@@H](Cc1ccccc1)C(N)=O [Y-SHf(Y^1)] (H-YYFFLSRIF-NH2; N-terminus assumed)
4 | > 100 µM | > 100 µM | > 100 µM | > 100 µM | > 100 µM | > 100 µM | 12.5 µM (≈ 15.5 µg/mL) | 12.5 µM (≈ 15.5 µg/mL) | 12.5 µM (≈ 15.5 µg/mL) | – | – | CC[C@H](C)[C@H](NC(=O)[C@H](CCCNC(=N)N)NC(=O)[C@H](CO)NC(=O)[C@H](CC(C)C)NC(=O)[C@H](Cc1ccccc1)NC(=O)[C@H](Cc1ccccc1)NC(=O)[C@H](Cc1ccccc1)NC(=O)[C@@H](N)Cc1ccc(O)cc1)C(=O)N[C@@H](Cc1ccccc1)C(N)=O [Y-SHf] (H-YFFFLSRIF-NH2; N-terminus assumed)

Further lines, the molecule ahead of its results:

Row | SMILES | MIC Gram- K. p 3026 (K. pneumoniae 3026) | MIC Gram- K. p ATCC 700603 [1] | MIC Gram- A. b 1337 (A. baumannii 1337) | MIC Gram- A. b 1318 (A. baumannii 1318) | MIC Gram- E. coli ATCC 25922 (E. coli ATCC 25922) | MIC Gram- E. coli S (E. coli S) | MIC Gram+ MRSA ATCC 43300 (MRSA ATCC 43300; ATCC 43300) | MIC Gram+ MRSA USA 300 (MRSA USA 300) | MIC Gram+ MRSA 3393 (MRSA 3393; 3393) | MIC Gram+ MRSA ATCC 43300 (MRSA ATCC 43300) | MIC Gram+ MRSA 3393 (MRSA 3393)
5 | CC[C@@H](C)[C@@H](NC(=O)[C@@H](CCCNC(=N)N)NC(=O)[C@@H](CCCNC(=N)N)NC(=O)[C@@H](CC(C)C)NC(=O)[C@@H](Cc1ccccc1)NC(=O)[C@H](N)CCCNC(=N)N)C(=O)N[C@H](Cc1ccccc1)C(=O)N[C@H](Cc1ccccc1)C(=O)N[C@H](Cc1ccccc1)C(=O)N[C@H](Cc1ccccc1)C(N)=O [D-HT2] (H-[dR][dF][dL][dR][dR][dI][dF][dF][dF][dF]-NH2; N-terminus assumed) | > 100 µM | 100 µM (≈ 145 µg/mL) | 12.5 µM (≈ 18.1 µg/mL) | 6.25 µM (≈ 9.05 µg/mL) | 50 µM (≈ 72.4 µg/mL) | 25 µM (≈ 36.2 µg/mL) | 6.25 µM (≈ 9.05 µg/mL) | 6.25 µM (≈ 9.05 µg/mL) | 6.25 µM (≈ 9.05 µg/mL) | – | –
6 | CC[C@H](C)[C@H](NC(=O)[C@@H](CCCNC(=N)N)NC(=O)[C@H](CCCNC(=N)N)NC(=O)[C@H](CC(C)C)NC(=O)[C@H](Cc1ccccc1)NC(=O)[C@H](Cc1ccccc1)NC(=O)[C@H](Cc1ccccc1)NC(=O)[C@@H](N)Cc1ccccc1)C(=O)N[C@@H](Cc1ccccc1)C(N)=O [F-SHf(R^5,dR^6)] (H-FFFFLR[dR]IF-NH2; N-terminus assumed) | > 100 µM | > 100 µM | 25 µM (≈ 32.3 µg/mL) | 25 µM (≈ 32.3 µg/mL) | > 100 µM | 25 µM (≈ 32.3 µg/mL) | 3.13 µM (≈ 4.04 µg/mL) | 3.13 µM (≈ 4.04 µg/mL) | 3.13 µM (≈ 4.04 µg/mL) | – | –
7 | CC[C@H](C)[C@H](NC(=O)[C@H](CCCNC(=N)N)NC(=O)[C@@H](CCCNC(=N)N)NC(=O)[C@H](CC(C)C)NC(=O)[C@H](Cc1ccccc1)NC(=O)[C@H](Cc1ccccc1)NC(=O)[C@H](Cc1ccccc1)NC(=O)[C@@H](N)Cc1ccccc1)C(=O)N[C@@H](Cc1ccccc1)C(N)=O [F-SHf(dR^5)] (H-FFFFL[dR]RIF-NH2; N-terminus assumed) | > 100 µM | > 100 µM | 25 µM (≈ 32.3 µg/mL) | 25 µM (≈ 32.3 µg/mL) | > 100 µM | 25 µM (≈ 32.3 µg/mL) | 3.13 µM (≈ 4.04 µg/mL) | 3.13 µM (≈ 4.04 µg/mL) | 3.13 µM (≈ 4.04 µg/mL) | – | –
8 | CC[C@H](C)[C@H](NC(=O)[C@@H](CCCNC(=N)N)NC(=O)[C@@H](CCCNC(=N)N)NC(=O)[C@H](CC(C)C)NC(=O)[C@H](Cc1ccccc1)NC(=O)[C@H](Cc1ccccc1)NC(=O)[C@H](Cc1ccccc1)NC(=O)[C@@H](N)Cc1ccccc1)C(=O)N[C@@H](Cc1ccccc1)C(N)=O [F-SHf(dR^5, 6)] (H-FFFFL[dR][dR]IF-NH2; N-terminus assumed) | 25 µM (≈ 32.3 µg/mL) | 25 µM (≈ 32.3 µg/mL) | 25 µM (≈ 32.3 µg/mL) | 12.5 µM (≈ 16.1 µg/mL) | > 100 µM | 6.25 µM (≈ 8.07 µg/mL) | 3.13 µM (≈ 4.04 µg/mL) | 3.13 µM (≈ 4.04 µg/mL) | 3.13 µM (≈ 4.04 µg/mL) | – | –
9 | CC[C@H](C)[C@H](NC(=O)[C@H](CCCNC(=N)N)NC(=O)[C@H](CCCNC(=N)N)NC(=O)[C@H](CC(C)C)NC(=O)[C@H](Cc1ccccc1)NC(=O)[C@H](Cc1ccccc1)NC(=O)[C@H](Cc1ccccc1)NC(=O)[C@H](Cc1ccccc1)NC(=O)[C@@H](N)Cc1ccccc1)C(=O)N[C@@H](Cc1ccccc1)C(N)=O [FF-SHf(R^5)] (H-FFFFFLRRIF-NH2; N-terminus assumed) | > 100 µM | > 100 µM | > 100 µM | 50 µM (≈ 71.9 µg/mL) | > 100 µM | 100 µM (≈ 144 µg/mL) | 1.57 µM (≈ 2.26 µg/mL) | 3.13 µM (≈ 4.5 µg/mL) | – | 1.57 µM (≈ 2.26 µg/mL) | 1.57 µM (≈ 2.26 µg/mL)
10 | CCCCCCCC(=O)N[C@@H](Cc1ccccc1)C(=O)N[C@@H](CC(C)C)C(=O)N[C@@H](CO)C(=O)N[C@@H](CCCNC(=N)N)C(=O)N[C@H](C(=O)N[C@@H](Cc1ccccc1)C(N)=O)[C@@H](C)CC [OA-SHf] (Octanoyl-FLSRIF-NH2) | > 100 µM | > 100 µM | > 100 µM | > 100 µM | > 100 µM | > 100 µM | 50 µM (≈ 45.4 µg/mL) | > 100 µM | > 100 µM | – | –
11 | CC[C@H](C)[C@H](NC(=O)[C@H](CCCNC(=N)N)NC(=O)[C@H](CCC(=O)O)NC(=O)[C@H](CC(C)C)NC(=O)[C@H](Cc1ccccc1)NC(=O)[C@H](Cc1ccccc1)NC(=O)[C@@H](N)Cc1ccccc1)C(=O)N[C@@H](Cc1ccccc1)C(N)=O [SHf(E^5)] (H-FFFLERIF-NH2; N-terminus assumed) | > 100 µM | > 100 µM | > 100 µM | > 100 µM | > 100 µM | > 100 µM | > 100 µM | > 100 µM | > 100 µM | – | –
12 | CC[C@H](C)[C@H](NC(=O)[C@H](CCCNC(=N)N)NC(=O)[C@H](CO)NC(=O)[C@H](CC(C)C)NC(=O)[C@H](Cc1ccccc1)NC(=O)[C@H](Cc1ccccc1)NC(=O)[C@@H](N)Cc1ccc(O)cc1)C(=O)N[C@@H](Cc1ccccc1)C(N)=O [SHf(Y^1)] (H-YFFLSRIF-NH2; N-terminus assumed) | > 100 µM | > 100 µM | > 100 µM | > 100 µM | > 100 µM | > 100 µM | > 100 µM | – | – | – | –
13 | CC[C@H](C)[C@H](NC(=O)[C@H](CCCNC(=N)N)NC(=O)[C@H](CO)NC(=O)[C@H](CC(C)C)NC(=O)[C@H](Cc1ccccc1)NC(=O)[C@@H](N)Cc1ccccc1)C(=O)N[C@@H](Cc1ccccc1)C(N)=O [SHfΔ1F] (H-FFLSRIF-NH2) | > 100 µM | > 100 µM | > 100 µM | > 100 µM | > 100 µM | > 100 µM | > 100 µM | > 100 µM | > 100 µM | – | –
